Measured values: US6608088B1, “Use of donerezil for the treatment of functional and/or organic pain syndromes” (priority 1998, dated 2003)
Counter-ions that a name gives are not always drawn.

What was measured:
[1] = system: migraine attacks longer than 72 h; test: Acute treatment of patients with migraine attacks longer than 72 h; format: in vivo; settings: 8 patients, 20 mg acutely given
[2] = system: pain syndromes caused by denervation or amputation; test: Treatment of patients with pain syndromes caused by denervation; format: in vivo; settings: five of nine patients, no advantage after antiinflammatory analgesics or opioids; same conditions as above (5 mg daily)
Experimental: In the pain syndromes caused by denervation or amputation pain develops on the limb or body part which is denervated and therefore is insensible to nociceptive stimuli (“painful anaesthesia”).
Nine patients who had no advantages after treatment with antiinflammatory analgesica or opioids were tested in the same conditions as above described.

[3] = human, in vivo
primary fibromyalgia = test: Treatment of patients with primary fibromyalgia; format: in vivo; settings: 16 patients, same conditions as migraine tests (5 mg daily)
Text: Systemic pain of muscles, tendons, viscera (oesophagus, stomach, colon); these syndromes are considered particularly difficult to hale.

COc1cc2c(cc1OC)C(=O)C(CC1CCN(Cc3ccccc3)CC1)C2 (centres unmarked) [Donepezil hydrochloride, 1H-Inden-1-one, 2,3-dihydro-5,6-dimethoxy-2-[[1-(phenylmethyl)4-piperidinyl]methyl]-, hydrochloride]
results of acute treatment of migraine attacks [1]: highly satisfactory
improvement of conditions [2]: 50-80%
tolerance to the treatment [3]: high tolerance
cases treated with improvement of the patient's conditions (primary fibromyalgia): 60%
cases with total disappearance of the pain (primary fibromyalgia): 10%
